Experiment: method code SF-AS, from DOI: 10.1016/0045-6535(95)00342-8

logP | SMILES
3.53 | CC(C)OC(=O)CC(Sc1ccccc1)C(=O)OC(C)C (stereo not drawn)
2.61 | COC(=O)CC(C)Sc1ccccc1 (stereo not drawn)
3.02 | CC(C)COC(=O)CSc1ccccc1
2.12 | CCOC(=O)CSc1ccccc1
2.72 | CCOC(=O)CCSc1ccccc1
1.96 | COC(=O)CC(CSc1ccccc1)C(=O)OC (stereo not drawn)
1.42 | COC(=O)CC(Sc1ccccc1)C(=O)OC (stereo not drawn)
1.73 | CCOCCOC(=O)CSc1ccccc1
2.04 | COC(=O)CCSc1ccccc1
2.6 | CCOC(=O)CC(Sc1ccccc1)C(=O)OCC (stereo not drawn)
3.26 | CCCCOC(=O)CSc1ccccc1
2.53 | CC(C)OC(=O)CSc1ccccc1
3.95 | CC(C)OC(=O)CC(CSc1ccccc1)C(=O)OC(C)C (stereo not drawn)
1.02 | COCCOC(=O)CSc1ccccc1
2.69 | CCCOC(=O)CSc1ccccc1
1.5 | COC(=O)CSc1ccccc1
2.63 | COC(=O)C(C)CSc1ccccc1 (stereo not drawn)
2.98 | CCOC(=O)CC(CSc1ccccc1)C(=O)OCC (stereo not drawn)

From the SangsterLogP compilation
